What was measured:
carboxylesterase (CE) [1] = assay: Carboxylesterase (CE) activity in rat liver microsomes (LVms), p-nitrophenyl acetate; assay type: biochemical; conditions: 10 uM compound, read 10 min after substrate, remaining CE activity
Protocol: (§1) FAAH inhibition was determined as described above. Inhibition of monoacylglycerol lipase (MAGL) and carboxylesterase (CE) was performed according to the protocols described below. The controls for both in vitro and in vivo were the reaction mix minus the test compounds. Therefore, a low value in Table 2 below for the test compounds indicates a strong inhibitor.
(§2) CE activity measurement is based on the formation of p-nitrophenol from p-nitrophenyl acetate. Briefly, in 96-well plates 8 μg/ml of rat or mouse liver microsomes (LVms) were incubated with 10 μM FAAH inhibitors for 15 min and then the substrate, p-nitrophenyl acetate, was added to a final concentration of 1 mM. The plate was read at 405 nm 10 min after substrate addition for the appearance of p-nitrophenol using a spectrophotometer. The carboxylesterase activity in microsome extracts without inhibitor added were set at 100% as control and the remaining CE activities after incubation with inhibitors were calculated relative to the control.

carboxylesterase (CE) [2] = assay: Carboxylesterase (CE) activity in mouse liver microsomes (LVms), p-nitrophenyl acetate; assay type: biochemical; conditions: 10 uM compound, read 10 min after substrate, remaining CE activity
Protocol: as §1, §2

FAAH [3] = target: T1, FAAH (Rattus norvegicus, UniProt P97612); assay: In vitro FAAH activity in rat brain membranes, 3H-AEA substrate, % of control; assay type: biochemical, Wistar rats; conditions: low value = strong inhibitor; for FAAH 100 nM: 100 nM compound; for In Vitro FAAH activity, 100 nM: 100 nM test compound; for In Vitro FAAH activity, 10 uM: 10 uM test compound
T1 construct: Frozen brains (without cerebellum) from Wistar rats were used; from tissue; host or cells: Wistar rat brain (without cerebellum), washed membrane pellets
T1 sequence (P97612 1-579): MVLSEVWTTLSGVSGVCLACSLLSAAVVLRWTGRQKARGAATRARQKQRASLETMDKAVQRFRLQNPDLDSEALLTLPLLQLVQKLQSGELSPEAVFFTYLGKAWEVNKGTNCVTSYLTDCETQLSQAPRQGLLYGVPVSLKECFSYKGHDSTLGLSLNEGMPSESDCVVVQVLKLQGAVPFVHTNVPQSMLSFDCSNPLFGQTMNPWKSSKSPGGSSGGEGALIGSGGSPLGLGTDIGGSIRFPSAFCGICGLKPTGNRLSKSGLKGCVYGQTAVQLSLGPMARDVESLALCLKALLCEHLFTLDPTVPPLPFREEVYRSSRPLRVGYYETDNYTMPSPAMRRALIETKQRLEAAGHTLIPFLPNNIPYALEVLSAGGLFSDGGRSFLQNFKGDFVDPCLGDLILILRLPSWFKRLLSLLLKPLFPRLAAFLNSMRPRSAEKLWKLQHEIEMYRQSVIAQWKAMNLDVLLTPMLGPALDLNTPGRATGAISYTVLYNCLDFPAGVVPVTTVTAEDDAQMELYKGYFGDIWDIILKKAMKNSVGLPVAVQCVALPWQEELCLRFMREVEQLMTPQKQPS
Method in brief: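 Wistar rat brain membranes (5 μg protein) preincubated 15 min at 37 °C with compound at 10 μM or 0.1 μM (0.1% DMSO), then 2 μM AEA including 3H-AEA with 0.1% BSA, Tris pH 7.6, 10 min. 3H-ethanolamine counted after charcoal stop; % of no-compound control after blank subtraction.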

FAAH [4] = target: T2, FAAH (Mus musculus, UniProt O08914); assay: In vivo FAAH inhibition after oral dosing, remaining activity in brain homogenate (BRh, central nervous tissue); parameters: species or system NMRI mice; conditions: brain homogenate, 3 mg/kg
T2 construct: A fragment of liver, left lung lobe and brain without cerebellum were removed; from tissue; host or cells: male NMRI mice; brain (without cerebellum) and liver homogenates
T2 sequence (O08914 1-579): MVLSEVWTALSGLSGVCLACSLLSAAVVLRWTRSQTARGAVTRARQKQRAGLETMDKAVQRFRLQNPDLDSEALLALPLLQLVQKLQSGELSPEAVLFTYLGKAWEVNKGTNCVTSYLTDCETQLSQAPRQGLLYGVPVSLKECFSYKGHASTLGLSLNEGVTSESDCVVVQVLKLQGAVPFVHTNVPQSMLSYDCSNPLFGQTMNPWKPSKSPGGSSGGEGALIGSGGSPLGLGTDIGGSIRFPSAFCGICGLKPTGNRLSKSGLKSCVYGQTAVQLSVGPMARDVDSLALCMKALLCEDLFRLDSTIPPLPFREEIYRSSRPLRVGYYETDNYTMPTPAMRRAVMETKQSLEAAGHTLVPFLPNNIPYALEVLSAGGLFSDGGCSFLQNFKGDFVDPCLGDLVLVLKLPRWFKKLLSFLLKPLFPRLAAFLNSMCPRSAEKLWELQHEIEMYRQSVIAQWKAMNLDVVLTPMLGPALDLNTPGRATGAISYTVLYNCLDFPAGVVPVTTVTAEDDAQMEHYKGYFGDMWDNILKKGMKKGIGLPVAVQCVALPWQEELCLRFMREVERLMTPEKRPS
Method in brief: (§3)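 Male NMRI mice, fasted overnight, got 30 or 3 mg/kg compound orally (0.5% CMC suspension or water) and were compared with vehicle controls. Brain (no cerebellum) and liver homogenates were incubated with 2 μM AEA plus 5 nM 3H-AEA at 37 °C, 10 min for brain and 7 min for liver. Remaining FAAH activity is % of vehicle after blank subtraction.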

FAAH [5] = target: T2, FAAH; assay: In vivo FAAH inhibition after oral dosing, remaining activity in liver homogenate (LVh, peripheral tissue); parameters: species or system NMRI mice; conditions: liver homogenate, 3 mg/kg
Method in brief: as §3

[6] = rat brain membranes, 100 = no measurable inhibition
[7] = 8 h after dosing, low value = strong inhibitor

Structure (SMILES) | In Vitro FAAH activity, 100 nM (FAAH [3]) | In Vivo BRh 3 mg/kg 8 h, remaining FAAH activity (FAAH [4]) | In Vivo LVh 3 mg/kg 8 h, remaining FAAH activity (FAAH [5]) | further results
CN(C(=O)n1nnc2cc(Br)ccc21)C1CCCCC1 [Compound 97, 5-bromo-N-cyclohexyl-N-methyl-1H-benzo[d][1,2,3]triazole-1-carboxamide] | 0 % of control |  |  | CE Rat LVms 10 uM 10 min (carboxylesterase (CE) [1]): 41.1 % of control; CE Mou LVms 10 uM 10 min (carboxylesterase (CE) [2]): 50.7 % of control; FAAH 100 nM (FAAH [3]; [6]): 0 % of control
COc1ccc(N(C)C(=O)n2cnc(-c3ccc4ccccc4c3)c2)cc1 [Compound 16, N-(4-methoxyphenyl)-N-methyl-4-(naphthalen-2-yl)-1H-imidazole-1-carboxamide] |  |  |  | CE Rat LVms 10 uM 10 min (carboxylesterase (CE) [1]): 87.5 % of control; CE Mou LVms 10 uM 10 min (carboxylesterase (CE) [2]): 95.4 % of control; FAAH 10 uM (FAAH [3]; 10 uM compound, rat brain membranes, 100 = no measurable inhibition): 24.7 % of control; In Vitro FAAH activity, 10 uM (FAAH [3]): 24.7 % of control
O=C(NCCCCc1ccccc1)n1nnc2ccccc21 [Compound 85, N-(4-phenylbutyl)-1H-benzo[d][1,2,3]triazole-1-carboxamide] | 0.1 % of control |  |  | CE Rat LVms 10 uM 10 min (carboxylesterase (CE) [1]): 33 % of control; CE Mou LVms 10 uM 10 min (carboxylesterase (CE) [2]): 31 % of control; FAAH 100 nM (FAAH [3]; [6]): 0.1 % of control
COc1ccc(OCCC2CCN(C(=O)n3nnc4ccccc43)CC2)cc1 [Compound 144, (1H-benzo[d][1,2,3]triazol-1-yl)(4-(2-(4-methoxyphenoxy)ethyl)piperidin-1-yl)methanone] | 0.1 % of control | 68.2 % of control | 17.6 % of control | 
CC1OCC(C)(C)N1C(=O)n1cnc(-c2ccc(Cl)cc2)c1 (centres unmarked) [Compound 235, (4-(4-chlorophenyl)-1H-imidazol-1-yl)(2,4,4-trimethyloxazolidin-3-yl)methanone] | 76.2 % of control | 108.5 % of control | 80.1 % of control | 
CC1(C)COCN1C(=O)n1cnc2ccccc21 [Compound 219, (1H-benzo[d]imidazol-1-yl)(4,4-dimethyloxazolidin-3-yl)methanone] | 111.6 % of control | 86.8 % of control | 89 % of control | In Vitro FAAH activity, 10 uM (FAAH [3]): 50.6 % of control
Cl.N#Cc1ccc(Oc2ccc(-c3ncn(C(=O)N4CCN(c5ccccc5)CC4)n3)cc2)cc1 [Compound 145, 4-(4-(1-(4-phenylpiperazine-1-carbonyl)-1H-1,2,4-triazol-3-yl)phenoxy)benzonitrile hydrochloride] | 0.3 % of control | 89.9 % of control | 116.5 % of control | 
CN(C(=O)n1cnc2ccccc21)C1CCCCC1 [Compound 222, N-cyclohexyl-N-methyl-1H-benzo[d]imidazole-1-carboxamide] | 102.9 % of control | 111.5 % of control | 59.2 % of control | 
CN(C(=O)n1cnc(-c2ccccc2)c1)C1CCN(Cc2ccccc2)CC1 [Compound 282, N-(1-benzylpiperidin-4-yl)-N-methyl-4-phenyl-1H-imidazole-1-carboxamide] |  |  |  | In Vivo BRh 3 mg·kg 8 h (remaining FAAH activity, % of control) (FAAH [4]; [7]): 0.5 % of control; In Vitro 100 nM (FAAH activity, % of control) (FAAH [3]; rat brain membranes, compound at 100 nM): 40.9 % of control; In Vivo LVh 3 mg·kg 8 h (remaining FAAH activity, % of control) (FAAH [5]; [7]): 1.6 % of control
COc1ccc(-c2cn(C(=O)N(C)C3CCCCC3)cn2)cc1OC [Compound 217, N-cyclohexyl-4-(3,4-dimethoxyphenyl)-N-methyl-1H-imidazole-1-carboxamide] | 80.5 % of control | 6 % of control | 4.2 % of control | In Vitro FAAH activity, 10 uM (FAAH [3]): 0 % of control
CC1(C)COCN1C(=O)n1nnc2ccc(-c3cccc(C(N)=O)c3)cc21 [Compound 163, 3-(3-(4,4-dimethyloxazolidine-3-carbonyl)-3H-benzo[d][1,2,3]triazol-5-yl)benzamide] | 0.6 % of control | 6.3 % of control | 2.4 % of control | 

— patent publication US9353082B2, “Pharmaceutical compounds” (BIAL—PORTELA & CA, S.A., priority 2008, dated 2016)
